Values quoted from earlier work, collected in publication PMC9301952 (ACS Omega, 2022).

System: mouse
Conditions: behavioral assay used to predict psychedelic drug activity

SMILES	activity in the mouse head twitch assay
CNCCc1c[nH]c2cccc(O)c12 [norpsilocin, 4-hydroxy-N-methyltryptamine]	neither compound is active
CNCCc1c[nH]c2cccc(OP(=O)(O)O)c12 [baeocystin, 4-phosphoryloxy-N-methyltryptamine]	neither compound is active
